Measured values reported in patent publication US10766857B2, “Compound having BLT inhibitory activity and composition, for preventing or treating inflammatory diseases, comprising same as active ingredient” (DONGGUK UNIVERSITY INDUSTRY-ACADEMIC COOPERATION FOUNDATION, priority 2015, dated 2020).
pIC50: −log10 of the molar value.

Key:
[1] = molecular target: T1, BLT2-expressing cells (CHO-BLT2 cells) (Homo sapiens, UniProt Q9NPC1); experiment: MTT cell growth of LTB4-stimulated BLT2-expressing cells; format: cell-based; conditions: pre-treated at 10 μM, LTB4 300 nM
T1 construct: HA; expressed in transfected cells
T1 sequence (Q9NPC1 with tags, fused parts or gaps): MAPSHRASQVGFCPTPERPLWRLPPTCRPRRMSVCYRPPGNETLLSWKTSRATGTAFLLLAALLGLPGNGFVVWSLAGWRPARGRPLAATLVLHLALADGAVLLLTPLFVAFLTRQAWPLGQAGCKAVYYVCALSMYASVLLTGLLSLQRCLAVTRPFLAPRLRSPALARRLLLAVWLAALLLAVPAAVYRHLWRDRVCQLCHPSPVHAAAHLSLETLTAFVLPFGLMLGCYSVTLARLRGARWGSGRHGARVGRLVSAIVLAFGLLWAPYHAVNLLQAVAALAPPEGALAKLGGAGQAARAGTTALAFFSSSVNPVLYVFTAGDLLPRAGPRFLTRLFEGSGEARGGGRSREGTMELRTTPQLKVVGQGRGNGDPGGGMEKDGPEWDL
Method: Cell viability according to treatment of the compounds prepared in the examples were measured by a 3-(4,5-dimethylthiazol-2-yl)-2,5-diphenyltetrazolium bromide (MTT) method.
More specifically, 1×10^4 each of the BLT2-nonexpressing cells (CHO-pcDNA3.1 cells) and BLT2-expressing cells (CHO-BLT2 cells), which were prepared in Experimental Example 1, were dispensed in a […], and cultured for 24 hours. Afterward, the culture medium was removed, a serum-free RPMI medium was added, and after two hours, the cells were pre-treated with each of the compound prepared in one of the examples (10 μM), 10 μM DMSO (compound solvent) as a control, and 10 μM 1-[5-ethyl-2-hydroxy-4-[[6-methyl-6-(1H-tetrazol-5-yl)heptyl]oxy]phenyl]-ethanone (LY255283; Cayman) as a positive control for 1 hour. Subsequently, after treatment of LTB4 (300 nM), the cells were cultured for 24 hours. 20 μL of an MTT solution (5 mg/mL, Sigma-Aldrich) was added to each well, the cells were cultured in a humid CO2 incubator at 37° C. for 4 hours, a supernatant was removed, and 200 μL of DMSO was added to each well to dissolve insoluble violet formazan crystals. Absorbance was measured using a microplate reader (Molecular Devices, Sunnyvale, Calif.) at 550 nm, and the measurement was repeated three times.

MDA-MB-435 cells = experiment: Matrigel invasion of breast cancer cells; format: cell-based
Method: (§1) The breast cancer cells such as the MDA-MB-231 cells were obtained from Korean Cell Line Bank (Seoul, Korea), and the MDA-MB-435 cells were provided by J. H. Lee (Asan Medical Center, Seoul, Korea). These cells were cultured in an RPMI 1640 medium (Invitrogen) containing 10% FBS (Life Technologies, Inc.), 1% penicillin (50 units/mL), and an antibiotic antimycotic solution (Life Technologies, Inc.) at 37° C. under a 5% CO2 condition.
(§2) To detect the invasion of breast cancer cells according to the treatment of the compound of the present invention, BioCoat Matrigel Invasion Chambers (BD Biosciences, Bedford, Mass.) were used. 5×10^4 of the breast cancer cells were harvested with trypsin-EDTA, resuspended in 0.5% serum-containing RPMI 1640, and transferred to Matrigel inserts. Five percent serum-containing RPMI 1640 was added to the lower chamber, and the cells were cultured at 37° C. for 36 hours. Each filter was fixed with methanol for 3 minutes, and stained with hematoxylin and eosin for 10 minutes. The invasiveness of the cancer cells was quantified by cell counts on the lower side of the filter under an optical microscope (magnification, 200×). In each analysis, 6 fields were quantified. Each sample was analyzed twice, and the analysis was repeated three times.

MDA-MB-231 cells = experiment: Matrigel invasion of breast cancer cells; format: cell-based
Method: as §1, §2

BLT2 = molecular target: T2, BLT2 (Homo sapiens, UniProt Q9NPC1); experiment: [3H]LTB4 and BLT2 binding inhibition, CHO-BLT2 cell membrane proteins; conditions: [3H]LTB4 5 nM
T2 construct: HA; expressed in transfected cells
T2 sequence (Q9NPC1 with tags, fused parts or gaps): T1 sequence (Q9NPC1 with tags, fused parts or gaps)
Method: The inhibition of LTB4 and BLT2 binding (ligand binding affinity) was analyzed using radioactive tritium (^3H)-labeled LTB4 ([^3H]LTB4, ARC; specific activity 160.0 Ci/mmol). After 2×10^6 of CHO-BLT2 cells were plated into a 100-mm culture dish and cultured for 48 hours, an experimental method was carried out as follows: Collected cells were treated using a homogenizer a total of five times for 1 minute each to separate proteins of the cell membrane. Afterward, the cells were subjected to centrifugation at 4° C. and 45,000 rpm for 40 minutes to only collect the proteins of the cell membrane, and thereby, a protein concentration of 40 μg/45 μL was quantified. When a BLT2-containing cell membrane proteins which were quantified in the same manner was treated with the same amount of [^3H]LTB4 (5 nM), and then a different concentration (10^−9, 10^−8, 10^−7, 10^−6 or 10^−5 M) of a compound, a degree of inhibiting the tritium-labeled LTB4 and BLT2 binding was measured using a Hidex 300sL liquid scintillation counter.

BLT1 = molecular target: T3, BLT1 (Homo sapiens, UniProt Q15722); experiment: LTB4-induced chemotactic motility, Transwell, CHO-BLT1 cells; format: cell-based; conditions: 10 μM pre-treatment, LTB4 10 nM
T3 construct: expressed in transfected cells; host or cells: CHO cells stably expressing BLT1 (CHO-BLT1)
T3 sequence (Q15722 whole entry, species assumed): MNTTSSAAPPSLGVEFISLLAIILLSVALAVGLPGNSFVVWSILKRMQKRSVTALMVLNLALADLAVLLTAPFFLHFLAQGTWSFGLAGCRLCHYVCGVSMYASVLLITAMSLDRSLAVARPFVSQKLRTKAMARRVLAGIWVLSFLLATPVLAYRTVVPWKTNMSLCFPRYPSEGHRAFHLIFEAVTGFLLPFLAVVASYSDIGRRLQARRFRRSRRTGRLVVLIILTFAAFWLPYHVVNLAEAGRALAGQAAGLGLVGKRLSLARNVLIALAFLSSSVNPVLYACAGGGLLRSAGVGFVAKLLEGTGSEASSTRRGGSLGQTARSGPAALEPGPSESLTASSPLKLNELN
Method: Chemotactic motility was analyzed using a Transwell chamber including a polycarbonate filter (8-μm pore size, Corning Costar) with a 6.5-mm diameter. Specifically, the lower surface of the filter was coated with 10 μg/mL fibronectin in a serum-free RPMI 1640 medium at 37° C. for 1 hour. The experiment was performed by placing the filter dried and coated with RPMI 1640 media containing various amounts of LTB4 in the lower wells of the Transwell chamber, and loading CHO cells stably expressing BLT1 and BLT2 into the upper wells containing serum-free RPMI 1640 media finally at 2×10^4 cells/100 μL. To evaluate the effect of inhibitors, the cells were pre-treated with each inhibitor for 30 minutes before dispensing. After the cells were cultured at 37° C. in 5% CO2 for 3 hours, the filters were fixed with methanol for 3 minutes, and stained with hematoxylin and eosin for 10 minutes. In the experiment, the cells were BLT2-expressing cells (CHO-BLT2 cells) and BLT1-expressing cells (CHO-BLT1 cells), and LY255283 and U75302 were used as positive controls for each type of the cells, and BLT2 ligand LTB4, (300 nM), BLT1 ligand LTB4 (10 nM), and lysophosphatidic acid (LPA; 100 nM) were used as comparative controls. The chemotactic motility was quantitatively analyzed by counting the cells on the lower side of the filter under an optical microscope (magnification, 200×). For each analysis, 6 fields were subjected to counting, each sample was analyzed twice, and the analysis was repeated three times.

SMILES: CCCCC(=O)N(CC#Cc1ccc(C(=O)N2CCN(C(C)C)CC2)cc1)c1ccccc1 [LMT-696, N-(3-(4-(4-isopropylpiperazine-1-carbonyl)phenyl)prop-2-ynyl)-N-phenylpentaneamide]
- cell growth compared with the control DMSO [1]: 56.6%
- cancer cell invasion inhibited (MDA-MB-435 cells): 56%
- cancer cell invasion inhibited (MDA-MB-231 cells): 70%
- pIC50 (BLT2): 8.25
- inhibitory effect on chemotactic motility (BLT1): did not exhibit the inhibitory effect
